According to BindingDB's records for doi:10.7270/Q2ZC8184 (Nmmlsc, 2010):

Each molecule was assayed against Glutathione S-transferase class-mu 26 kDa isozyme (Schistosoma japonicum, UniProt P08515) (assay: GST–glutathione bead interaction interference profiling – biochemical, multiplex beads, flow cytometry, profiling panel (AID 1769)).
Glutathione S-transferase class-mu 26 kDa isozyme, sequence (P08515 2-218 limits assumed): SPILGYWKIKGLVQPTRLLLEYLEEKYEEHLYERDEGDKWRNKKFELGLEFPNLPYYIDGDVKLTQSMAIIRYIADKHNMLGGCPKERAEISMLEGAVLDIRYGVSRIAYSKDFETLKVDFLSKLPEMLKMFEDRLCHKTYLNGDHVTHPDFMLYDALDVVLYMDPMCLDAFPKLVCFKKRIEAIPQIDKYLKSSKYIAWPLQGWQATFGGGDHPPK

Question: For CCOC1=CC(=Cc2sc(=O)[nH]c2N)C=CC1=O, which EC50 is on record?
Answer: 2.47 µM

Question: CC(N=Nc1ccc(S(N)(=O)=O)cc1[N+](=O)[O-])c1ccc2c(c1)OCO2 (stereo not drawn) was tested. Which EC50 did it give?
Answer: 1.4 µM

Question: For CCn1cc(C(=O)O)c(=O)c2cc(F)c(N=NCc3ccccc3)cc21 [1-Ethyl-6-fluoro-4-oxo-7-{N'-[1-phenyl-meth-(E)-ylidene]-hydrazino}-1,4-dihydro-quinoline-3-carboxylic acid], which EC50 is on record?
Answer: 3.88 µM

Question: Which EC50 does the source give for CC(C)NC(=S)NN=C1C(=O)Nc2ccc([N+](=O)[O-])cc21 [1-[(5-nitro-2-oxidanylidene-indol-3-yl)amino]-3-propan-2-yl-thiourea] here?
Answer: 1.43 µM

Question: For NC(=S)NNC1=c2cc(Br)cc(Br)c2=NC1=O [1-[[5,7-bis(bromanyl)-2-oxidanylidene-indol-3-yl]amino]thiourea], which EC50 is on record?
Answer: 69.1 µM

Question: Which EC50 does the source give for O=c1[nH]c(=O)c2nnc(N=NCc3ccc(O)cc3)nc2[nH]1 [3-[2-[(4-oxidanylidenecyclohexa-2,5-dien-1-ylidene)methyl]hydrazinyl]-5H-pyrimido[4,5-e][1,2,4]triazine-6,8-dione] here?
Answer: 3.79 µM

Question: For Cc1nc(N=NCc2ccc(O)cc2)c2cnn(-c3ccccc3)c2n1 [4-[[(6-methyl-1-phenyl-4-pyrazolo[3,4-d]pyrimidinyl)hydrazo]methylidene]-1-cyclohexa-2,5-dienone], which EC50 is on record?
Answer: 3.58 µM

Question: For COC(=O)c1cc(NC(=O)c2cccc(Cl)c2)c(=O)oc1CC=Nc1cc(C)cc(C)c1 [5-[(3-chlorobenzoyl)amino]-2-[(E)-2-(3,5-dimethylanilino)vinyl]-6-keto-pyran-3-carboxylic acid methyl ester], which EC50 is on record?
Answer: 0.567 µM

Question: For COc1ccc(-c2csc(-c3c(O)cn(C(C)C)c3N)n2)cc1OC [5-amino-4-[4-(3,4-dimethoxyphenyl)-1,3-thiazol-2-yl]-1-propan-2-yl-2H-pyrrol-3-one], which EC50 is on record?
Answer: 87.3 µM

Question: How did the EC50 turn out when COc1ccc(N=CCc2nc(SC)nnc2C)cc1 [(4-methoxyphenyl)-[(E)-2-[6-methyl-3-(methylthio)-1,2,4-triazin-5-yl]vinyl]amine] was run?
Answer: 2.76 µM

Question: Which EC50 does the source give for COc1cc(CN=Nc2nc(C)nc3c2cnn3-c2ccccc2)ccc1O [(4E)-2-methoxy-4-[[(6-methyl-1-phenyl-4-pyrazolo[3,4-d]pyrimidinyl)hydrazo]methylidene]-1-cyclohexa-2,5-dienone] here?
Answer: 0.638 µM

Question: For Cc1cc(N=NCc2ccc(O)cc2O)nc(-n2nc(C)cc2C)n1 [(4E)-4-[[2-[2-(3,5-dimethylpyrazol-1-yl)-6-methyl-pyrimidin-4-yl]hydrazinyl]methylidene]-3-oxidanyl-cyclohexa-2,5-dien-1-one], which EC50 is on record?
Answer: 0.831 µM

Question: How did the EC50 turn out when CCN(c1ccc(NC=C2C(=O)N(Cc3ccc(OC)cc3)C(=O)c3ccccc32)cc1)C(C)C [(4E)-4-[[[4-[ethyl(propan-2-yl)amino]phenyl]amino]methylidene]-2-[(4-methoxyphenyl)methyl]isoquinoline-1,3-dione] was run?
Answer: 0.249 µM

Question: Cc1ccc(O)c(/N=C/C2=CC(Cc3ccccc3)C=C([N+](=O)[O-])C2=O)c1 (stereo not drawn) [(6E)-6-[[(5-methyl-2-oxidanyl-phenyl)amino]methylidene]-2-nitro-4-(phenylmethyl)cyclohexa-2,4-dien-1-one] was tested. Which EC50 did it give?
Answer: 8.29 µM

Question: Which EC50 does the source give for O=c1[nH]c(N=NCc2ccc(O)cc2)nc2ccccc12 [MLS000571412] here?
Answer: 7.68 µM

Question: For O=C(Cc1ccccc1)NCC(=O)N/N=C1\C(=O)N(Cc2ccc3c(c2)OCO3)c2ccccc21 [MLS000587449], which EC50 is on record?
Answer: 12 µM

Question: Which EC50 does the source give for NC(=S)NNC1=c2cc(F)c(F)cc2=NC1=O [MLS000589334] here?
Answer: 15.6 µM

Question: How did the EC50 turn out when CCNC(=S)NN=C1C(=O)Nc2ccc([N+](=O)[O-])cc21 [MLS000773526] was run?
Answer: 1.93 µM

Question: Oc1ccc2ccccc2c1CN=Nc1nnc(-c2ncc[nH]2)c2ccccc12 [SMR000151639] was tested. Which EC50 did it give?
Answer: 1.95 µM

Question: With CCn1cc(C(=O)O)c(=O)c2cc(F)c(N=NCc3ccccc3[N+](=O)[O-])cc21 [SMR000171611] as the molecule, how does the EC50 read?
Answer: 2.67 µM

Question: For CN1C(=O)/C(=C2/C(=O)Nc3ccccc32)NC1=S [SMR000198608], which EC50 is on record?
Answer: 13.4 µM

Question: With CCOc1ccc2c(c1)C(=NN=C(N)N)C(=O)N2C [SMR000207554] as the molecule, how does the EC50 read?
Answer: 25.6 µM

Question: How did the EC50 turn out when COc1cc(CN=Nc2ncnc3sc4c(c23)CCC4)ccc1O [SMR000242188] was run?
Answer: 14.5 µM
